According to patent US20210009624A1, “[18F] FMAU LABELING FOR PET IMAGING OF CANCER PATIENTS” (University of Southern California, priority 2018, published 2021):

Experiments:
[1] = test system: primary breast tumor as well as metastatic disease; experiment: PET imaging of [18F]FMAU in breast cancer patients (Phase I); format: in vivo, human; conditions: FIG. 3
Text: (§1) In addition to animal models, we also studied the [^18F]FMAU obtained through our synthesis method using the labeling kit in patients (Phase I) with known breast and prostate cancer. […] In view of the promising clinical Phase I data of [^18F]FMAU, it is clear that FMAU is a promising candidate for PET imaging of tumor cell proliferation, and may ultimately complement the role of FLT or other cell proliferation markers currently under development.

[2] = Adverse reactions in Phase I patients with breast and prostate cancer; format: in vivo, human; conditions: all studied patients (Phase I, known breast and prostate cancer)
Text: as §1

[3] = Circulating metabolites in human blood after injection of [18F]FMAU; format: in vivo; conditions: human blood at 1 hour post-injection
Text: as §1

Compound: Cc1cn([C@@H]2O[C@H](CO)C(O)C2[18F])c(=O)[nH]c1=O (stereo partly drawn) [[^18F]FMAU, 2′-deoxy-2′-[^18F]fluoro-5-methyl-1-beta-D-arabinofuranosyl-uracil]
- primary breast tumor as well as metastatic disease uptake of [18F]FMAU (PET imaging) [1]: excellent
- adverse reactions [2]: No adverse reactions were observed
- circulating metabolites in human blood [3]: No major circulating metabolites were identified
